Laboratory results as given in US20120258172A1, “Compositions For The Treatment of Central Nervous System Disorders Including Depression Employing Novel Drug Combination Therapy To Reduce Suicidality In Patients” (priority 2010, published 2012).

What was measured:
[1] = Phase II trial: serum lithium level; format: in vivo, human; settings: subgroup n = 11 of 40 on 300 mg lithium carbonate/day + 20 mg citalopram (3 at 0.5, 3 at 0.6, 5 at 0.7); week 4
Method: (§6) All subjects received 20 mg citalopram and were randomized to either 300 mg lithium carbonate/day or placebo for 4 weeks of Double-Blind Treatment. Patients were instructed to take one capsule from the bottle and two tablets from the blister card one time daily, in the morning, orally with food. If the patient was unable to tolerate morning dosing, patient may be switched to evening dosing as long as there was 24 hours minimum between doses.

[2] = test system: severely depressed patients with suicidal thoughts and behaviors; experiment: Phase II trial: Clinical Global Impression (CGI) severity; format: in vivo, human; settings: n = 40 per arm
Description: (§1) Ninety-three patients were screened and 80 subjects were identified who were between the ages of 18 to 75, inclusive, and met the criteria for major depressive disorder (MDD), dysthymia, depression not otherwise specified and/or borderline personality disorder as defined by Diagnostic and Statistical Manual-IV-TR and confirmed by the Mini International Neuropsychological Interview (MINI).
(§2) Selected subjects scored >15 on the Montgomery-Åsberg Depression Rating Scale and >8 on the Sheehan Suicidality Tracking Scale (S-STS) at Screening and Baseline Visits. […]
(§3) Efficacy was measured by taking S-STS (Sheehan-Suicidality Tracking Scale (Sheehan, 2009)) scores at Baseline and at each visit for 4 weeks of treatment or until end-of-treatment and measuring the change from baseline in the S-STS total score at week 4. […]
(§4) All significance tests were two-sided. Statistical significance was assessed at the p≦0.05 level for main effects, and significance at the p≦0.10 level was considered a trend indicating efficacy. […]

[3] = test system: severely depressed patients with suicidal thoughts and behaviors; experiment: Phase II trial: Beck Hopelessness Scale (BHS); format: in vivo, human; settings: n = 40 per arm
Description: as §1, §2, §3, §4

[4] = test system: severely depressed patients with suicidal thoughts and behaviors; settings: of 40 patients in the arm
Method: as §6
Subjects were considered to have completed the study if they completed all of the visits.

[5] = test system: severely depressed patients with suicidal thoughts and behaviors; experiment: Phase II trial: Sheehan Suicidality Tracking Scale (S-STS); format: in vivo, human
Description: as §1
Selected subjects scored >15 on the Montgomery-Åsberg Depression Rating Scale and >8 on the Sheehan Suicidality Tracking Scale (S-STS) at Screening and Baseline Visits. Subjects were excluded if they had current, unstable and significant medical conditions (a history of unstable Thyroid disorders, a history of seizure disorders, tumors or other central nervous system (CNS) condition that predisposes the patient to risk of seizure), pregnant or lactating, had any abnormal clinical laboratory test results, or ECG results which were judged by the investigator as clinically significant, a history of intolerance or hypersensitivity to citalopram, other SSRIs, or lithium, a history or current diagnosis of bipolar mood disorder, psychosis, schizophrenia or dementia, were currently involved in another clinical trial or had participated in another clinical trial less than thirty days prior, or had current or prior treatment with citalopram or escitalopram. Psychotropic medications (anti-psychotics, anti-depressants, and mood stabilizers) were excluded during the treatment phase and required a twenty-four hour washout period prior to the first dose of study medication. Diuretics, analgesics, benzodiazepines and opiates were used with caution.
(§5) Efficacy was measured by taking S-STS (Sheehan-Suicidality Tracking Scale (Sheehan, 2009)) scores at Baseline and at each visit for 4 weeks of treatment or until end-of-treatment and measuring the change from baseline in the S-STS total score at week 4. Secondary efficacy variables were the BHS (Beck Hopelessness Scale (Beck, Steer, 1988)), BSS (Beck Scale for Suicide Ideation (Beck and Steer, 1991)), C-SSRS (Columbia Suicide Severity Rating Scale (Posner et al., 2009) and CGI (Clinical Global Impression Study (Guy, 1976)) changes at week 4. Safety measures were collected and evaluated throughout the trial. These included Adverse Events (AEs), laboratory parameters, physical examinations, ECGs and vital signs and weight measurements. Adverse events were any untoward medical event occurring in a subject administered study drug, irrespective of whether it has a causal relationship to the study drug. An adverse event could therefore be any unfavorable or unintended sign (including abnormal laboratory findings, for example), symptom, or disorder temporarily associated with study drug, whether or not considered related to the study drug. Adverse Events among the 80 participants were as follows:
All significance tests were two-sided. Statistical significance was assessed at the p≦0.05 level for main effects, and significance at the p≦0.10 level was considered a trend indicating efficacy. Missing values were handled using the last observation carried forward (LOCF) technique. The primary analysis population for inference was the intention-to-treat (ITT) population.

[6] = test system: severely depressed patients with suicidal thoughts and behaviors; experiment: Phase II trial: adverse events; format: in vivo, human
Method: Eligible subjects were evaluated for safety parameters prior to and throughout the screening through a variety of methods including an ECG, physical exam, vital sign taking and clinical laboratory testing. A standard 12-lead ECG was performed at Screening (Visit 1) and at Week 4 (Visit 6 or Early Termination Visit). Physical examinations included determination of general appearance, mental status, skin, neck (including thyroid), eyes, ears, nose, throat, heart, lungs, abdomen, lymph nodes, musculoskeletal system, and nervous system. Vital signs included respiratory rate, radial pulse and systolic and diastolic blood pressures. Vital signs were collected in the seated position. Clinical Laboratory Testing Parameters included a Complete Metabolic Panel (Na, K, Cl, CO2, Glu, BUN, Cr, Ca, TP, Alb, TBili, AP, AST, ALT), Hematology CBC (Hgb, Hct, RBC, WBC, Pit, Diff) and TSH (w/reflex T-4). Serum HCG is performed for all females, and Urine Analysis is completed for all subjects.
as §5, with “follows: […]” for “follows:”

[7] = test system: severely depressed patients with suicidal thoughts and behaviors; experiment: Phase II trial: Montgomery-Åsberg Depression Rating Scale (MADRS); format: in vivo, human; settings: all patients assigned, n = 40
Description: as §1, §2, §3, §4

[8] = test system: severely depressed patients with suicidal thoughts and behaviors; experiment: Phase II trial: Beck Scale for Suicide Ideation (BSS); format: in vivo, human; settings: n = 40 per arm
Description: as §1, §2, §3, §4

## [Li] [lithium]
[1]
  serum lithium level: ≥ 0.5 mEq/L

## CN(C)CCCC1(c2ccc(F)cc2)OCc2cc(C#N)ccc21 (stereo not shown) [Citalopram + Placebo, citalopram]
[2]; Baseline
  CGI (Severity), Mean (SD): 4.9 (0.8)
[2]; End of Study (week 4, LOCF)
  CGI (Severity), Mean (SD): 3.3 (1.8)
[3]; Baseline
  BHS, Mean (SD): 16.3 (3.4)
[3]; End of Study (week 4, LOCF)
  BHS, Mean (SD): 11.8 (5.4)
[4]
  patients who discontinued participation because of Adverse Event: 1
[5]; all patients assigned, n = 40
  # With Full S-STS Symptom Remission: 6
  # With No change in S-STS Symptoms: 12
  # with Worsening of S-STS Symptoms: 2
  % With Full S-STS Symptom Remission: (15%)
  % With No change in S-STS Symptoms: (30%)
  % with Worsening of S-STS Symptoms: (5%)
  Mean Total S-STS Change Score: 4.8
[5]; among the 64 completers
  change in the mean total S-STS: 5.4±5.3
[6]; all patients assigned, n = 40
  Adverse Events per Patient: 1.0
[6]; n = 40 per arm, 4 weeks
  Anxiousness, % of patients: 3%
  Anxiousness, number of patients: 1
  Common Cold, % of patients: 5%
  Common Cold, number of patients: 2
  Decreased Appetite, % of patients: 5%
  Decreased Appetite, number of patients: 2
  Dizziness, % of patients: 5%
  Dizziness, number of patients: 2
  Headaches, % of patients: 1 (1%)
  Headaches, number of patients: 1 (1%)
  Nausea, % of patients: 3%
  Nausea, number of patients: 5
  Restlessness, % of patients: 5%
  Restlessness, number of patients: 2
  Somnolence, % of patients: 18%
  Somnolence, number of patients: 7
  Total Events (most frequent and serious adverse events): 23
  Vomiting, % of patients: 3%
  Vomiting, number of patients: 1
[7]
  Mean Total MADRS Change Score: 9.8
[8]; Baseline
  BSS, Mean (SD): 16.2 (6.7)
[8]; End of Study (week 4, LOCF)
  BSS, Mean (SD): 9.1 (8.2)
